Test results from patent US4548750A, “Pyrimido[4,5-d][2]benzazepines useful as sedatives and anxiolytic agents” (Hoffmann-La Roche Inc., priority 1983, dated 1985).

Legend:
Cats = assay: Unanesthetized Cat (minimum symptoms, usually ataxia); type: in vivo; conditions: Felis catus, po, cats treated orally
Procedure: Cats are treated orally and observed for minimum symptoms--usually ataxia. One cat is used at a dose of 50 mg/kg. If activity is present, up to three cats/dose are used. Results are given as minimum effective dose.

Toxicity (LD50) = conditions: in vivo; PO; species not given
mice = assay: Footshock (blocking of footshock-induced fighting in pairs of mice); type: in vivo; conditions: Mus musculus; pairs of mice pretreated 1 hour prior to second shocking; 3 out of 3 pairs must be blocked from fighting; maximum dose 100 mg/kg
Procedure: A pair of mice is confined under a one liter beaker placed on a grid which presents shock to the feet. At least 5 fighting episodes are elicited in a two-minute period. Pairs of mice are marked and pretreated 1 hour prior to a second shocking. Logarithmic dose intervals are utilized up to a maximum of 100 mg/kg. At the 100% blocking dose, 3 out of 3 pairs must be blocked from fighting.

male mice = assay: Inclined Screen (paralyzing effects causing mice to slide off the screen); type: in vivo; conditions: Mus musculus; groups of 6 male mice; at least 4 hours observation; maximum dose 500 mg/kg; read-out: Inclined Screen (PD50)
Procedure: Groups of 6 male mice are given the test drug (maximum dose of 500 mg/kg) and then are left on the inclined screen at least 4 hours for observation of paralyzing effects severe enough to cause them to slide off the screen. If activity is observed, additional doses are taken until at least two are reached at which some, but not all of the animals slide off the screen. Doses at which mice fall off the screen due to toxicity or excitation are not included in the calculation of PD50.

In the case of `Cc1nc(Cl)c2c(n1)CN=C(c1ccccc1)c1cc(Cl)ccc1-2` [1,9-Dichloro-3-methyl-7-phenyl-5H-pyrimido[4,5-d][2]benzazepine], the minimal effective dose (Cats) is reported as 10 mg/kg, the LD50 (Toxicity (LD50)) is reported as > 1000 mg/kg and the ED100 (mice) is reported as 10 mg/kg. It also gave an ED50 (male mice) of 400 mg/kg.
